Measured values published in US20100010058A1, “Azoline Compounds for Combating Arthropod Pests” (BASF SE, priority 2006, published 2010).

Legend:
Format in all cases: in vivo
[1] = system: Vetch Aphid (Megoura viciae); assay: Activity against Vetch Aphid (Megoura viciae), bean leaf disk microtiterplate test; settings: foliar, 144 h, bean leaf disks sprayed, adult aphids, 6 days, compared to 0% mortality of untreated controls
Procedure: 2.1 Activity against Vetch Aphid (Megoura viciae)
The active compounds were formulated in DMSO/water (1:3). Bean leaf disks were placed into microtiterplates filled with 0.8% agar-agar and 2.5 ppm OPUS™. The leaf disks were sprayed with 2.5 μl of the test solution and 5 to 8 adult aphids were placed into the microtiterplates which were then closed and kept at 22-24° C. and 35-45% under fluorescent light for 6 days. Mortality was assessed on the basis of vital, reproduced aphids. Tests were replicated 2 times.

[2] = system: Cotton Aphid (Aphis gossypii); assay: Activity against Cotton Aphid (Aphis gossypii), cotton cotyledon dip test; settings: 120 h, cotton cotyledons dipped, mortality counts after 5 days
Excerpt: 2.2 Activity against Cotton Aphid (Aphis gossypii)
The active compounds were formulated in acetone/water (1:1) and 100 ppm Kinetic™ surfactant. Cotton plants at the cotyledon stage (one plant per pot) were infested by placing a heavily infested leaf from the main colony on top of each cotyledon. The aphids were allowed to transfer to the host plant overnight, and the leaf used to transfer the aphids was removed. The cotyledons were dipped in the test solution and allowed to dry. After 5 days, mortality counts were made.

[3] = system: Green Peach Aphid (Myzus persicae); assay: Activity against Green Peach Aphid (Myzus persicae), pepper plant leaf dip test; settings: foliar, 120 h, pepper plant leaves dipped, after 5 days, in comparison with untreated controls
Procedure: 2.3. Activity against Green Peach Aphid (Myzus persicae)
Pepper plants in the 2nd leaf-pair stage (variety ‘California Wonder’) are infested with approximately 40 laboratory-reared aphids by placing infested leaf sections on top of the test plants. The leaf sections are removed after 24 hours. The leaves of the intact plants are dipped into gradient solutions of the test compound. Aphid mortality on the treated plants, relative to mortality on check plants, is determined after 5 days.

[4] = system: Brown Planthopper (nilaparvata lugens); assay: Activity against Brown Planthopper (nilaparvata lugens), sprayed rice plants; settings: assessed 24, 48 and 72 hours after treatment, in comparison with untreated controls
Procedure: 2.4 Activity against Brown Planthopper (nilaparvata lugens)
The active compounds were formulated as a 20:80 acetone:water solution. Surfactant (Alkamuls EL 620) was added at the rate of 0.1% (vol/vol).
Potted rice plants of 3-4 weeks of age are sprayed with 10 ml of the test solution using air driven hand atomizer (Devillbis atomizer) at 1.7 bar. The treated plants are allowed to dry for about 1 hour and covered with Mylar cages. The plants are inoculated with 10 adults of the specie (5 male and 5 females) and kept at 25-27° C. and 50-60% humidity for 3 days. Mortality is assed after 24, 48 and 72 hours after treatment. Dead insects are usually found in the water surface. Each treatment is replicated once.

Structure (SMILES)	mortality at 2500 ppm [1]	mortality at 300 ppm [2]	mortality at 300 ppm [3]	mortality at 300 ppm [4]
CC(C)=CCN(NC1=NCCS1)c1cccc(C)c1C [Example 30, N′-(4,5-Dihydro-thiazol-2-yl)-N-(2,3-dimethyl-phenyl)-N-(3-methyl-but-2-enyl)-hydrazine]	> 75%	–	–	–
Cc1cccc(CN(NC2=NCCS2)c2cccc(Cl)c2Cl)c1 [Example 7, N-(2,3-Dichloro-phenyl)-N′-(4,5-dihydro-thiazol-2-yl)-N-(3-methyl-benzyl)-hydrazine]	> 75%	> 50%	> 50%	≥ 50%
